Data: ChEMBL document CHEMBL5244272 (Eur J Med Chem, 2021)
Values after ≈ are worked out from the molar mass of the structure shown.

Columns and labels:
Plasmodium falciparum [1] = test: Antimalarial activity against ART-sensitive Plasmodium falciparum W2; assay type: functional, organism-based
Plasmodium falciparum [2] = test: Antimalarial activity against ART-resistant Plasmodium falciparum Dd2 harboring R539T mutant; assay type: functional, organism-based
Plasmodium falciparum [3] = test: Antimalarial activity against Plasmodium falciparum W2; assay type: functional, organism-based
Plasmodium falciparum [4] = test: Antimalarial activity against ART-resistant Plasmodium falciparum NF54 harboring […] mutant; assay type: functional, organism-based
Plasmodium falciparum [5] = test: Antimalarial activity against ART-sensitive Plasmodium falciparum 3D7; assay type: functional, organism-based
Plasmodium falciparum [6] = test: Antimalarial activity against late blood stage Plasmodium falciparum NF54 gametocytes; assay type: functional, organism-based
Plasmodium falciparum [7] = test: Antimalarial activity against ART-sensitive Plasmodium falciparum NF54; assay type: functional, organism-based
Plasmodium falciparum [8] = test: Antimalarial activity against Plasmodium falciparum D10; assay type: functional, organism-based
Plasmodium falciparum [9] = test: Antimalarial activity against chloroquine-sensitive Plasmodium falciparum HB3; assay type: functional, organism-based
Plasmodium falciparum [10] = test: Antimalarial activity against chloroquine-resistant Plasmodium falciparum K1; assay type: functional, organism-based
Plasmodium falciparum [11] = test: Antimalarial activity against Plasmodium falciparum 3D7; assay type: functional, organism-based
Plasmodium berghei [12] = test: Antimalarial activity against Plasmodium berghei ANKA infected in po dosed mouse; assay type: functional; conditions: Plasmodium berghei, ANKA
Plasmodium yoelii [13] = test: Antimalarial activity against Plasmodium yoelii infected in sc dosed mouse; assay type: functional
Plasmodium berghei [14] = test: Antimalarial activity against Plasmodium berghei infected in sc dosed mouse; assay type: functional; conditions: Plasmodium berghei
Plasmodium yoelii [15] = test: Antimalarial activity against Plasmodium yoelii infected in po dosed mouse; assay type: functional
Plasmodium berghei [16] = test: Antimalarial activity against Plasmodium berghei infected in po dosed mouse; assay type: functional
Plasmodium falciparum [17] = test: Antimalarial activity against Plasmodium falciparum K1; assay type: functional, organism-based
Plasmodium yoelii [18] = test: Antimalarial activity against Plasmodium yoelii infected in mouse; assay type: functional
[19] = Toxicity in brine shrimp; conditions: artemia salina
Plasmodium falciparum [20] = test: Antimalarial activity against Plasmodium falciparum FcB1 at 1 ng/ml; assay type: functional
Plasmodium falciparum [21] = test: Antimalarial activity against Plasmodium falciparum FcB1 at 100 ng/ml; assay type: functional
Plasmodium falciparum [22] = test: Antimalarial activity against Plasmodium falciparum FcB1 at 10 ng/ml; assay type: functional
Plasmodium falciparum [23] = test: Antimalarial activity against ART-resistant Plasmodium falciparum harboring R539T mutant assessed as increase in survival at 700 nM; assay type: functional
Plasmodium berghei [24] = test: Antimalarial activity against Plasmodium berghei K173 infected in mouse; assay type: functional
Plasmodium falciparum [25] = test: Antimalarial activity against Plasmodium falciparum Dd2; assay type: functional, organism-based
Plasmodium falciparum [26] = test: Antimalarial activity against Plasmodium falciparum NF54; assay type: functional, organism-based

## C[C@H]1[C@H](N2CCS(=O)(=O)CC2)O[C@@H]2O[C@]3(C)CC[C@H]4[C@H](C)CC[C@@H]1[C@@]24OO3
Plasmodium falciparum [1]
  IC50: 0.5 nM
Plasmodium falciparum [2]
  IC50: 1.4 nM
Plasmodium falciparum [3]
  IC50: 0.9 nM
Plasmodium falciparum [4]
  IC50: 0.7 nM
Plasmodium falciparum [5]
  IC50: 0.9 nM
Plasmodium falciparum [6]
  IC50: 42.4 nM
Plasmodium falciparum [7]
  IC50: 0.9 nM
Plasmodium falciparum [8]
  IC50: 1.1 nM

## CNCCO[C@H]1O[C@@H]2O[C@]3(C)CC[C@H]4[C@H](C)CC[C@@H]([C@H]1C)[C@@]24OO3
Plasmodium falciparum [9]
  IC50: 2.7 nM
Plasmodium falciparum [10]
  IC50: 2.4 nM

## CN1CCN(C2CCN(C(=O)CC3CCC4(CC3)OOC3(OO4)C4CC5CC(C4)CC3C5)CC2)CC1 (stereo not given)
Plasmodium falciparum [11]
  IC50: 0.8 nM
Plasmodium berghei [12]
  ED90: 4.18 mg/kg
Plasmodium berghei [12]; read-out: ED50
  ED50: 1.33 mg/kg

## C[C@H]1[C@H](NC2CCN(c3ncccn3)CC2)O[C@@H]2O[C@]3(C)CC[C@H]4[C@H](C)CC[C@@H]1[C@@]24OO3
Plasmodium yoelii [13]
  ED90: 0.52 mg/kg
Plasmodium berghei [14]
  ED90: 0.46 mg/kg
Plasmodium yoelii [15]
  ED90: 2 mg/kg
Plasmodium berghei [16]
  ED90: 1.5 mg/kg

## CC1CC2CCC(C1)[C@@](C)(/C=C/[C@H](O)C(C)(C)O)OO2 (stereo not given in full)
Plasmodium falciparum [17]
  IC50: 115 nM
Plasmodium yoelii [18]
  ED50: 50 mg/kg

## C[C@H]1[C@@H](OC(=O)c2ccc3[nH]cnc3c2)O[C@@H]2O[C@]3(C)CC[C@H]4[C@H](C)CC[C@@H]1[C@@]24OO3
Plasmodium falciparum [11]
  IC50: 6.96 nM
[19]
  LC50: 362 mg/L (≈ 844 µM)

## C[C@@H]1CC[C@H]2[C@@H](C)C(=O)N(CCC(=O)N(CCO)CC(=O)NC(=O)c3ccccc3)[C@@H]3O[C@]4(C)CC[C@@H]1[C@@]23OO4
Plasmodium falciparum [20]
  Activity: 78%
Plasmodium falciparum [21]
  Activity: 100%
Plasmodium falciparum [22]
  Activity: 99%

## C[C@H]1[C@H](OC(=O)CCCc2ccccc2)O[C@@H]2O[C@]3(C)CC[C@H]4[C@H](C)CC[C@@H]1[C@@]24OO3
Plasmodium falciparum [11]
  IC50: 5.36 nM
[19]
  LC50: 139 mg/L (≈ 323 µM)

## C[C@H]1[C@@H](CCN2CCN(c3cccc(C(F)(F)F)c3)CC2)O[C@@H]2O[C@]3(C)CC[C@H]4[C@H](C)CC[C@@H]1[C@@]24OO3
Plasmodium yoelii [18]
  ED90: < 10 mg/kg

## C[C@H]1[C@H](N2CCN(c3ccc(S(=O)(=O)N(C)C)c4nonc34)CC2)O[C@@H]2O[C@]3(C)CC[C@H]4[C@H](C)CC[C@@H]1[C@@]24OO3
Plasmodium falciparum [1]
  IC50: 249 nM
Plasmodium falciparum [2]
  IC50: 497 nM
Plasmodium falciparum [4]
  IC50: 13.5 nM
Plasmodium falciparum [5]
  IC50: 348 nM
Plasmodium falciparum [7]
  IC50: 16.4 nM

## CC1(C)CC(O)(COc2ccc([C@H]3CC[C@]4(CC3)OOC3(O4)C4CC5CC(C4)CC3C5)cc2)CC(C)(C)N1 (stereo not given in full)
Plasmodium falciparum [23]
  Activity: <0.01%

## C[C@H]1[C@@H](OCc2ccc(CN3CCCC3)cc2)O[C@@H]2O[C@]3(C)CC[C@H]4[C@H](C)CC[C@@H]1[C@@]24OO3
Plasmodium falciparum [9]
  IC50: 2.3 nM
Plasmodium falciparum [10]
  IC50: 2.3 nM

## C[C@@H]1CC[C@H]2[C@@H](C)C(Nc3ccc(C(=O)O)cc3)O[C@@H]3O[C@]4(C)CC[C@@H]1[C@]32OO4 (stereo not given in full)
Plasmodium berghei [24]
  SD50: 1.36 mg/kg/day

## C[C@@H]1CC[C@H]2[C@@H](C)C(=O)N(CCC(=O)N(CC(=O)NC(=O)c3ccccc3)C(C)(C)C)[C@@H]3O[C@]4(C)CC[C@@H]1[C@@]23OO4
Plasmodium falciparum [20]
  Activity: 98%
Plasmodium falciparum [21]
  Activity: 100%
Plasmodium falciparum [22]
  Activity: 99%

## CCN(CC)Cc1ccc(CO[C@H]2O[C@@H]3O[C@]4(C)CC[C@H]5[C@H](C)CC[C@@H]([C@H]2C)[C@@]35OO4)cc1
Plasmodium falciparum [9]
  IC50: 3.1 nM
Plasmodium falciparum [10]
  IC50: 1.4 nM

## C[C@H]1[C@H](N2CCN(C(=O)Nc3ccc(C(F)(F)F)cc3)CC2)O[C@@H]2O[C@]3(C)CC[C@H]4[C@H](C)CC[C@@H]1[C@@]24OO3
Plasmodium falciparum [25]
  IC50: 12.2 nM
Plasmodium falciparum [26]
  IC50: 1.83 nM
Plasmodium falciparum [17]
  IC50: 1.12 nM
Plasmodium falciparum [6]
  IC50: 0.6 nM

## CCCN(CC(=O)NC(=O)c1ccccc1)C(=O)CCN1C(=O)[C@H](C)[C@@H]2CC[C@@H](C)[C@@H]3CC[C@]4(C)OO[C@]32[C@H]1O4
Plasmodium falciparum [20]
  Activity: 100%
Plasmodium falciparum [21]
  Activity: 100%
Plasmodium falciparum [22]
  Activity: 99%

## c1cc([C@H]2CC[C@]3(CC2)OOC2(O3)C3CC4CC(C3)CC2C4)ccc1OCCN1CCOCC1 (stereo not given in full)
Plasmodium falciparum [23]
  Activity: <0.01%

## C[C@@H]1CC[C@H]2[C@@H](C)C(Nc3cccc(Cl)c3)O[C@@H]3O[C@]4(C)CC[C@@H]1[C@]32OO4 (stereo not given in full)
Plasmodium berghei [24]
  SD50: 1.62 mg/kg/day
